We go through two molecules from patent US6465515B2, “Solid compositions suitable for oral administration containing non-hydroscopic salts of L-carnitine and alkanoyl L-carnitines” (Sigma-Tau Industrie Farmaceutiche Riunite S.p.A., priority 1998, dated 2002).

This data set can be described thus: hygroscopicity of the salts. The class given is physicochemical. Particulars: isolated solid.

For `CCC(=O)O[C@H](CC(=O)O)C[N+](C)(C)C` [Example 1, Propionyl L-carnitine Pamoate], the hygroscopicity result was “non-hygroscopic”.

`CC(=O)O[C@H](CC(=O)O)C[N+](C)(C)C` [Example 3, Acetyl L-carnitine Pamoate]: the hygroscopicity entry is given as “non-hygroscopic”.
